According to patent US9573960B2, “Glioblastoma inhibiting compounds and their use” (Life & Brain GmbH, priority 2011, dated 2017):
Structures can show the parent of a compound that is named as a salt. Where two headings read alike, the source gives them in different places.

How the values were obtained:
glioma cell line U87 = test: Drug screening, AlamarBlue assay in U87; assay type: cell-based; conditions: for inhibition at 1 µM: Glioma cell, 144 h, read-out: reduction of the relative metabolic activity of U87
Procedure: (§1) Experiments were performed in triplicates for each sample.
For comparison with our four patient-specific primary GBM cell specimens, we used the commercially available glioma cell line U87 that is frequently investigated in drug discovery settings (FIG. 2).

[1] = test system: #155 cells (primary cells from a patient with pharmacoresistent epilepsy); test: Drug screening, AlamarBlue assay in #155 control cells; assay type: cell-based, human; conditions: 1 μM
Procedure: as §1
As an alternative control, primary cells were evaluated, which were obtained from a patient suffering from pharmacoresistent epilepsy (patient #155).

[2] = test system: four patient-specific primary GBM cultures; conditions: for effect on the primary GBM cells' metabolic activity: 1 μM
Procedure: Before screening, cell number was titrated for each cell line separately to ensure that cell proliferation remained in a linear-exponential phase throughout the experiment. 24 hours after seeding 2−3×10^3 cells/well into laminin/poly-L-ornithine coated 96-well plates, primary cultures were treated with 2 nM, 1 μM or 10 μM of each compound (stock solution 10 mM in DMSO). As a reference we treated cells with 50 μM and 500 μM temozolomide (TMZ, SigmaAldrich, Taufkirchen, Germany; stock solution of 100 mM in DMSO). Control cells were treated with 0.5-0.01% DMSO. Six days after application, cell viability was determined using the AlamarBlue® assay according to the manufacturers recommendations (Invitrogen, Karlsruhe, Germany). Fluorescence was measured using an Infinite200 microplate reader (Tecan, Crailsheim, Germany) at Xex=540 nm and Xem=590 nm. Experiments were performed in triplicates for each sample.
To identify cytotoxic and cytostatic compounds, we conducted in vitro drug-screening assays in four different patient-specific primary GBM cultures (see Table 1 for basic characterization of research specimens).
The compound library was screened at three different concentrations (10 μM, 1 μM, 2 nM). The relative metabolic activity was determined after a 5-day incubation with compounds. […] For reference, we applied 50 μM (reported plasma peak concentration) and 500 μM of temozolomide (TMZ, as described in Beier et al., 2008), the current standard chemotherapeutic GBM drug to our cells. […] However, “hits” in the setting of a primary screening were defined as a reduction of the relative metabolic activity under the level of 50% of DMSO-treated control cells.

[3] = test system: patient-specific GBM primary cells; test: Pharmacodynamic analysis of pristimerin, AlamarBlue (ICM50); assay type: cell-based; conditions: Homo sapiens, 120 h
Procedure: For pharmacodynamic analyses of pristimerin and niclosamide 5×10^4 cells were plated in 12 well plates 24 h before they were treated with concentrations indicated. 5 days after the treatment, cell viability was monitored by the AlamarBlue® assay. Experiments were performed in triplicates. The ICM50 is the concentration of agent that reduced the metabolic activity by 50% under the experimental conditions.
Pristimerin induces apoptosis in GBM primary cells. […] Because the peak plasma concentration of pristimerin is not yet known, we investigated a range of concentrations between 70 nM and 10 μM (FIG. 5). Under these conditions, pristimerin is potently cytotoxic at median ICM50's (half maximal inhibitory concentration of metabolic activity) of approximately 500 nM (FIG. 5a,b,d)

[4] = test system: GBM primary cells under non-adherent conditions (neurospheres); test: Pristimerin in 3D culture, non-adherent growth conditions (ICM50); assay type: cell-based; conditions: Homo sapiens, single dose, specimens 046, 078, 106
Text: FIG. 11: Inhibition of GBM primary cells under adherent (solid line) vs. non-adherent (dotted line) conditions. Results represent the mean of triplicate-well-analysis for 3 different specimens at each concentration (046, 078, 106)
The GBM-inhibitory activity of Pristimerin was confirmed in 3D culture systems, i.e. non-adherent growth conditions (FIG. 11). Under anchorage-withdrawal, GBM cells form neurospheres, and investigation of their metabolic response patterns indicated a more resistant phenotype.

[5] = test system: patient-specific GBM primary cultures; test: AnnexinV-based FACS analysis of apoptosis; assay type: cell-based, human; conditions: 1 μM, 5-day exposure, in 7 out of 8 cultures
Procedure: […] 1×10^5 cells were sedimented by centrifugation, resuspended in […] AnnexinV buffer (BD Bioscience, Heidelberg, Germany) and incubated with 5 μl Annexin V-FITC (BD Bioscience, Heidelberg, Germany) for 1 h at RT. To distinguish between living and dead cells, labeling with 1.2 μg/ml bisbenzimide H33258 (Invitrogen, Karlsruhe, Germany) was used. Expression was determined using standard conditions in a LSRII equipped with FACSDiva Software (BD Bioscience, Heidelberg, Germany). For each measurement, 20.000 cells were counted. Annexin V positive cells, Annexin V and H33258 positive cells and H33258 positive cells were termed avital cells.
These effects could be validated as compound-specific, based on analysis of Pristimerin purchased from an independent supplier that yielded similar results (Sigma; FIG. 1b). For further experimentation, pristimerin was applied at 1 μM concentrations (FIG. 1c). […] In 7 out of 8 investigated patient-specific GBM primary cultures more than 50% of all cells could be classified as avital (FIG. 6; ***p<0.001, compared to their respective DMSO-treated control cells).

GBM primary cells = test: Growth kinetic analysis (proliferation kinetics); assay type: cell-based, human; conditions: single dose 1 μM
Procedure: Five days after treatment in 6 cm dishes, 47,000 vital cells were plated into 3.5 cm laminin/poly-L-ornithine coated plastic dishes. 20 ng/ml EGF/bFGF were provided upon plating, and 10 ng/ml EGF/bFGF were added every other day thereafter. Four-to-six days later, adherent cells were trypsinized, harvested, counted, and plated at a density of 4.7×10^4 cells. This procedure was repeated for 4-5 passages. Mean values are presented with standard error.
Cells surviving the application of Pristimerin expand linearly on a logarithmic scale. There is an initial delay of cell growth lasting for a maximum of 10 days. However, thereafter, every patient-specific GBM primary culture we investigated thus far continued to proliferate as well as their respective DMSO-control (FIG. 7).

[6] = test system: GBM primary cells (035, 046); test: Long-term monitoring of cell confluency (CellaVista); assay type: cell-based, human; conditions: single dose 1 μM, post compound application
Procedure: FIG. 8: Long-term monitoring of cellular confluency post application of 1 μM pristimerin (dotted lines) in two independent GBM primary cell culture experiments (035=triangle; 046=squares) (solid line, 0.1% DMSO). Live cell-imaging was performed using the CellaVista system according to its specifications (Roche Diagnostics).
We used the CellaVistasystem (Roche Diagnostics, Mannheim) for monitoring of cell confluency as a surrogate analysis tool.

[7] = test system: clonogenic, neurosphere-forming GBM cells; test: Neurosphere assay after pristimerin; assay type: cell-based, human; conditions: single dose 1 μM, cases 046, 078, 106
Procedure: Based on previous investigations (Scheffler et al., 2005), a single cell suspension of 1×10^4 cells/cm^2 was diluted in 1% methylcellulose-containing PROL media provided with 20 ng/ml EGF/bFGF, and inoculated into nonadhesive culture dishes. 10 ng/ml EGF/bFGF was then added every other day. Neurospheres were quantified at 21 days in culture, triturated to a single cell suspension, which was used for plating under identical conditions and analysis of the formation of secondary or higher degree neurospheres. For analysis of multipotency, a representative fraction of 3° neurospheres were used. Neurospheres were plated onto laminin/poly-L-ornithine coated glass coverslips and, after attachment, provided with PROL media devoid of mitogens to allow differentiation for 2-3 weeks in culture before PFA-fixation and immunofluorescence analysis.
Furthermore, a single dose of pristimerin decreased the frequency of clonogenic, i.e. neurosphere-forming cells by 30-60% (FIG. 9a,b). Depletion of clonogenic cells was never observed at concentrations of […]. Clonogenic cells were always able to selfrenew and form higher-degree neurospheres that gave rise to immature neurons and astrocytes (FIG. 9c). These findings indicate that Pristimerin is not selectively inhibiting GBM cancer stem cells. […]

[8] = in vivo; cited from earlier work

COc1cc([C@@H]2c3cc4c(cc3[C@H](O)[C@H]3COC(=O)[C@@H]23)OCO4)cc(OC)c1OC [Picropodophyllotoxin]
inhibition at 1 µM (glioma cell line U87): ≤ 50%
effect on the metabolic activity of the #155 cells [1]: very little effect

CC[C@@]1(O)C(=O)OCc2c1cc1n(c2=O)Cc2cc3cc(O)ccc3nc2-1 [10-Hydroxycamptothecin]
effect on the metabolic activity of the #155 cells [1]: very little effect

CC[C@@]1(O)C(=O)OCc2c1cc1n(c2=O)Cc2cc3ccccc3nc2-1 [camptothecin]
effect on the metabolic activity of the #155 cells [1]: very little effect

C[C@@]12C(=O)OC(=O)[C@]1(C)[C@H]1CC[C@@H]2O1 [Cantharidin]
effect on the metabolic activity of the #155 cells [1]: diminished the metabolic activity of the #155 cells significantly
effect on the primary GBM cells' metabolic activity [2]: no significant effect

COC(=O)[C@]1(C)CC[C@]2(C)CC[C@]3(C)C4=CC=C5C(=CC(=O)C(O)=C5C)[C@]4(C)CC[C@@]3(C)[C@@H]2C1 [Pristimerin]
inhibition at 1 µM (glioma cell line U87): ≤ 50%
IC50 ([3]; 70 nM to 10 μM, 5 days post application, read-out: median ICM50 (half maximal inhibitory concentration of metabolic activity)): ~500 nM
IC50 ([3]; Microsource compound, 5 days, read-out: median ICM50): 580 nM
IC50 ([3]; Sigma compound, 5 days, read-out: median ICM50): 430 nM
IC50 [4]: 1100 nM
cells classified as avital [5]: more than 50%
initial delay of cell growth (GBM primary cells): ≤ 10 days
time before surviving cells take on proliferative activity [6]: ≥ 10 days
decrease of frequency of clonogenic, neurosphere-forming cells [7]: 30-60%
reduction of metabolic activity ([2]; case 023, 1 μM): 90%
reduction of metabolic activity ([2]; case 035, 1 μM): 97%
reduction of metabolic activity ([2]; case 046, 1 μM): 78%
reduction of metabolic activity ([2]; case 106, 1 μM): 97%

C=C(C)[C@H]1Cc2c(ccc3c2O[C@@H]2COc4cc(OC)c(OC)cc4[C@@H]2C3=O)O1 [Rotenone]
inhibition at 1 µM (glioma cell line U87): ≤ 50%
effect on the metabolic activity of the #155 cells [1]: very little effect

O=C(Nc1ccc([N+](=O)[O-])cc1Cl)c1cc(Cl)ccc1O [Niclosamide]
inhibition at 1 µM (glioma cell line U87; 1 μM): ≤ 50%
effect on the metabolic activity of the #155 cells [1]: very little effect

O=C1C(Cl)=C(Cl)C(=O)c2c(O)ccc(O)c21 [2,3-dichloro-5,8-dihydroxynapthoquinone]
effect on the metabolic activity of the #155 cells [1]: diminished the metabolic activity of the #155 cells significantly
effect on the primary GBM cells' metabolic activity [2]: no significant effect

CN(Cc1cnc2nc(N)nc(N)c2n1)c1ccc(C(=O)N[C@@H](CCC(=O)O)C(=O)O)cc1 [Methotrexate]
inhibition at 1 µM (glioma cell line U87; 1 μM): ≤ 50%
effect on the metabolic activity of the #155 cells [1]: very little effect

CC(=O)O[C@H]1C(=O)[C@@]2(C)[C@H]([C@H](OC(=O)c3ccccc3)[C@]3(O)C[C@H](OC(=O)[C@H](O)[C@@H](NC(=O)c4ccccc4)c4ccccc4)C(C)=C1C3(C)C)[C@]1(OC(C)=O)CO[C@@H]1C[C@@H]2O [paclitaxel]
effect on the metabolic activity of the #155 cells [1]: very little effect

O=c1[nH]c(=O)n([C@H]2C[C@H](O)[C@@H](CO)O2)cc1F [Floxuridine]
inhibition at 1 µM (glioma cell line U87; 1 μM): ≤ 50%
effect on the metabolic activity of the #155 cells [1]: very little effect

N=c1ccn2c(n1)O[C@H]1[C@H](O)[C@@H](CO)O[C@H]12 [Ancitabine hydrochloride]
inhibition at 1 µM (glioma cell line U87; 1 μM): ≤ 50%

COc1cc(O)c2c(c1)C(=O)c1cc(C)cc(O)c1C2=O [Physicion]
influence on the U87's metabolic activity (glioma cell line U87; 1 μM): significant influence
effect on the primary GBM cells' metabolic activity [2]: without affecting

CCCCCCCCCCCCCC(=O)O[C@@H]1[C@@H](C)[C@@]2(O)[C@@H](C=C(CO)C[C@]3(O)C(=O)C(C)=C[C@@H]23)[C@@H]2C(C)(C)[C@]12OC(C)=O [phorbol myristate acetate]
effect on the metabolic activity of the #155 cells [1]: diminished the metabolic activity of the #155 cells significantly
effect on the primary GBM cells' metabolic activity [2]: no significant effect

CC[C@]1(O)C[C@H]2CN(CCc3c([nH]c4ccccc34)[C@@](C(=O)OC)(c3cc4c(cc3OC)N(C=O)[C@H]3[C@@](O)(C(=O)OC)[C@H](OC(C)=O)[C@]5(CC)C=CCN6CC[C@]43[C@@H]65)C2)C1 [vincristine sulfate]
effect on the metabolic activity of the #155 cells [1]: very little effect

COc1cc([C@@H]2c3cc4c(cc3[C@@H](O[C@@H]3O[C@@H]5CO[C@@H](c6cccs6)O[C@H]5[C@H](O)[C@H]3O)[C@H]3COC(=O)[C@H]23)OCO4)cc(OC)c1O [Teniposide]
inhibition at 1 µM (glioma cell line U87; 1 μM): ≤ 50%
effect on the metabolic activity of the #155 cells [1]: very little effect

Nc1nc2nc[nH]c2c(=S)[nH]1 [Thioguanine]
inhibition at 1 µM (glioma cell line U87; 1 μM): ≤ 50%
effect on the metabolic activity of the #155 cells [1]: very little effect

Cn1nnc2c(C(N)=O)ncn2c1=O [TMZ, temozolomide]
reduction of relative metabolic activity ([2]; 50 μM TMZ, mean of four patient-specific primary cultures): 17%
relative metabolic activity, level ([2]; 500 μM TMZ, mean of four patient-specific primary cultures): 63%
reported plasma peak concentration [8]: 50 µM

CC[C@H]1CN2CCc3cc(OC)c(OC)cc3[C@@H]2C[C@@H]1C[C@H]1NCCc2cc(OC)c(OC)cc21 [emetine]
effect on the metabolic activity of the #155 cells [1]: very little effect

C=C1[C@@H](C)[C@H]2[C@H](Cc3ccccc3)NC(=O)[C@]23[C@H](OC(C)=O)/C=C/[C@@](C)(O)C(=O)[C@@H](C)C/C=C/[C@H]3[C@@H]1O [cytochalasin D]
effect on the metabolic activity of the #155 cells [1]: diminished the metabolic activity of the #155 cells significantly
effect on the primary GBM cells' metabolic activity [2]: no significant effect
